The values that follow come from ChEMBL document CHEMBL5143656, “Polyphenolic compounds: Synthesis, assessment of antimicrobial effect and enzymes inhibition against important medicinal enzymes with computational details” (Bioorg Med Chem Lett, 2022).

A word on the MIC: it is the lowest concentration that inhibits growth of the organism. Lower therefore signals inhibition by little substance. In general, IC50 refers to the concentration at which inhibition is half-maximal.

Experiment [1] deals with Enterococcus faecalis. The experiment is described as follows: Antimicrobial activity Enterococcus faecalis against incubated for 24 hrs. The class given is functional.
The test system of experiment [2] is Candida albicans. The experiment is described as follows: Antimicrobial activity Candida albicans against incubated for 24 hrs. The class given is functional.
In experiment [3] the test system is Cyberlindnera jadinii. The experiment is described as follows: Antimicrobial activity Candida utilis against incubated for 24 hrs. The class given is functional. The note with it: Williopsis jadinii.
Experiment [4] has as its system PC-3. The experiment is described as follows: Cytotoxicity in human PC3 cells assessed as reduction in cell viability incubated for 24 hrs by MTT assay. The note with it: PC-3, 24 h. The class given is functional, cell-based.
The test system of experiment [5] is Escherichia coli. The experiment can be described thus: Antimicrobial activity Escherichia coli against incubated for 24 hrs. The class given is functional.
Experiment [6] addresses T1, Tyrosinase (Homo sapiens, UniProt P14679).
T1 sequence (P14679 whole entry): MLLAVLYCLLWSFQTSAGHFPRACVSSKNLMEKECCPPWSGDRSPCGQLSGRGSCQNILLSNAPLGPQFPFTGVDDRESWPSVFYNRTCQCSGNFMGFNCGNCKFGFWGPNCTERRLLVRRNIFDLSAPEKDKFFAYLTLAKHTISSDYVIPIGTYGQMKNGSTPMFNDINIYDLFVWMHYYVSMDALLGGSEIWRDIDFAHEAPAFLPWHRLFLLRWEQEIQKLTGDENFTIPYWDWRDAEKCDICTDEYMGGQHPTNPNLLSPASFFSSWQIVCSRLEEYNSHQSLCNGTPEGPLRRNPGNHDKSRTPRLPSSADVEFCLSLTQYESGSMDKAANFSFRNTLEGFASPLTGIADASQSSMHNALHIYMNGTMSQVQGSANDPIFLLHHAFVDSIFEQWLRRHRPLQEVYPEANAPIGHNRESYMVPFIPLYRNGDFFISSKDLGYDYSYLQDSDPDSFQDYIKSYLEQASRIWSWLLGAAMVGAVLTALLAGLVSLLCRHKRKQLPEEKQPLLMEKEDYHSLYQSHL
The experiment is described as follows: Inhibition of tyrosinase (unknown origin) using L-DOPA as substrate incubated for 10 mins.

Experiment [7] deals with Cholinesterase (Homo sapiens, UniProt P06276). The experiment is described as follows: Inhibition of BChE (unknown origin) using […] as substrate incubated for 10 mins by Ellman's method. Background: DTNB colorimetry detects thiols as they appear.
Sequence of Cholinesterase (P06276 whole entry): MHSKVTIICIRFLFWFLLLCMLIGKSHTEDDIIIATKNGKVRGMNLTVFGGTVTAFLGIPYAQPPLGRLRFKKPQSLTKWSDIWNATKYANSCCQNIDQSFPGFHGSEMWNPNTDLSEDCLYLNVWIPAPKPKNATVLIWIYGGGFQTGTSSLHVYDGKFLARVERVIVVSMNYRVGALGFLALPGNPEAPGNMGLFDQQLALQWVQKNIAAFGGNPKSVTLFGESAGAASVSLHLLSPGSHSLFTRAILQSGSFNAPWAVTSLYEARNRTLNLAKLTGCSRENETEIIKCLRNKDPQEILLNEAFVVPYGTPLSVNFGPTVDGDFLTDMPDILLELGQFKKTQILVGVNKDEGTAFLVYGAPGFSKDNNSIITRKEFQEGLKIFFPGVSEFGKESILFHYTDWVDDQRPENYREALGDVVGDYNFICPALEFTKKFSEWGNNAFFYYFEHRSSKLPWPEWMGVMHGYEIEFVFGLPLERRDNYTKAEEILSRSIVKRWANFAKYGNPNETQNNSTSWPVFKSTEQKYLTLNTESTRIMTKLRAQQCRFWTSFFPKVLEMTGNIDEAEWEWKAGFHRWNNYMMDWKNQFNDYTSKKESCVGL
In experiment [8] the target is Acetylcholinesterase (Homo sapiens, UniProt P22303). The experiment can be described thus: Inhibition of AChE (unknown origin) using […] as substrate incubated for 10 mins by Ellman's method.
Sequence of Acetylcholinesterase (P22303 whole entry): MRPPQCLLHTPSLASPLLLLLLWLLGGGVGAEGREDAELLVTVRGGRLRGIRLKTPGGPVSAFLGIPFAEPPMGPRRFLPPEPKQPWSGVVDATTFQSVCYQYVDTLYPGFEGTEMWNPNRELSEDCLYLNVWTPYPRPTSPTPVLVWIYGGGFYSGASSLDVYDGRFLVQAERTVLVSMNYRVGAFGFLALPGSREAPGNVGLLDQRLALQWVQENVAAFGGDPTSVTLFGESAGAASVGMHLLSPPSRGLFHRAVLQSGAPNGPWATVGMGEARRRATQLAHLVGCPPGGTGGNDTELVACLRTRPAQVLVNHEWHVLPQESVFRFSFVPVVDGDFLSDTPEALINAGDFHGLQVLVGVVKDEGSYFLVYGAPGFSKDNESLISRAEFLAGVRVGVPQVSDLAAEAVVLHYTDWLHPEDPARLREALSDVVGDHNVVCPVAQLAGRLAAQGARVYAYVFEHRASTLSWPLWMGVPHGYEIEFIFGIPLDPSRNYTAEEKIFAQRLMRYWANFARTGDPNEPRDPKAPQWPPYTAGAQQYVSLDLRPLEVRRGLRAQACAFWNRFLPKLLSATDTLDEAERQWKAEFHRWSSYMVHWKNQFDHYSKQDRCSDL
For experiment [9], the system named is Klebsiella pneumoniae. The experiment can be described thus: Antimicrobial activity Klebsiella pneumoniae against incubated for 24 hrs. The class given is functional.
In experiment [10] the test system is Staphylococcus aureus. The experiment is described as follows: Antimicrobial activity Staphylococcus aureus against incubated for 24 hrs. The class given is functional.
In experiment [11] the target is T1, Tyrosinase. The experiment is described as follows: Inhibition of tyrosinase (unknown origin).

The structures appear in SMILES notation. Values after ≈ are worked out from the molar mass of the structure shown.

As to `CCC(c1ccc(O)c(OC)c1)c1cccc(O)c1O` (stereo not drawn), the MIC came out at 369 µg/mL (≈ 1350 µM) in experiment [1]; 448 µg/mL (≈ 1630 µM) in experiment [2]; 467 µg/mL (≈ 1700 µM) in [3]; 181 µg/mL (≈ 659 µM) in [5]; 277 µg/mL (≈ 1010 µM) in experiment [9]; 284 µg/mL (≈ 1040 µM) in experiment [10]. Moreover, the half-inhibitory concentration (IC50) in experiment [4] worked out at 16.1 µg/mL (≈ 58.9 µM); in experiment [6] it was 2.32 µM; in experiment [7], 2.82 µM; in experiment [8], 5.66 µM.
For the compound `CCC(c1ccc(O)c(OC)c1)c1ccc(OC)cc1O` (stereo not drawn), the minimum inhibitory concentration (MIC) came out at 112 µg/mL (≈ 389 µM) in experiment [1]; 220 µg/mL (≈ 761 µM) in [2]; 249 µg/mL (≈ 864 µM) in [3]; 269 µg/mL (≈ 933 µM) in experiment [5]; 204 µg/mL (≈ 707 µM) in [9]; 184 µg/mL (≈ 638 µM) in experiment [10]. For the same compound, the IC50 in experiment [4] was 12.2 µg/mL (≈ 42.2 µM); in [6] it was 2.83 µM; in experiment [7], 2.25 µM; in experiment [8] it was 4.76 µM.
`O=c1c(O)c(-c2ccc(O)cc2)oc2cc(O)cc(O)c12` [KAEMPFEROL] had an IC50 in experiment [11] of 65.1 µM.
Same read-out and setting: for `O=c1c(O)c(-c2ccc(O)c(O)c2)oc2cc(O)cc(O)c12` [QUERCETIN] the value was […]; for `O=C(/C=C/c1ccc(O)cc1)OC[C@H]1O[C@@H](Oc2c(-c3ccc(O)cc3)oc3cc(O)cc(O)c3c2=O)[C@H](O)[C@@H](O)[C@@H]1O` [TILIROSIDE], 78.5 µM.
